Laboratory results: patent publication US7374894B2, “Methods of identifying compounds that modulate IL-4 receptor-mediated IgE synthesis utilizing a chloride intracellular channel 1 protein” (Rigel Pharmaceuticals, Inc., priority 2002, dated 2008)

Legend:
[1] = tested on: IL-4 induced germline ε transcription; experiment: Re-infection assay in naïve A5T4 reporter cells (BFP-/BFP+ GFP FACS); assay type: cell-based, human; settings: for functional category of mutant as compared to wild type peptide, based on reporter ratio: % change calculated after subtracting 1.0 from the individual ratios; for Reporter Ratio: screening in the A5T4 reporter line, DL03 wt and double-residue mutants
Procedure: The ability of peptide DL03 wt (SEQ ID NO:1) to inhibit germline ε transcription was confirmed in naïve cells. Briefly, Phoenix cells were transfected with a retroviral vector encoding a BFP-DL03 wt (SEQ ID NO:1) peptide fusion as described in WO 99/58663 and WO 97/27213. Naïve A5T4 cells were infected with the resultant virions and grown for 3 days. The infected cells were stimulated with IL-4 (60 U/mL) and, after 3 days, the cells were assessed by FACS for BFP and GFP. […] The BFP fluorescence data corresponding to the BFP^+ and BFP^− populations are provided in Panel A. The GFP fluorescence data corresponding to the BFP^+ and BFP^− populations are presented in Panel B. The reporter ratio for this purpose is determined as the geometric mean of the GFP fluorescence of the BFP^− population divided by the geometric mean of the GFP fluorescence of the BFP^+ population as presented in panel C. The reporter ratio for the DL03 in this re-infection assay was 1.50.
A collection of DL03 mutants was generated by replacing double amino acid residues in the sequence of DL03 wt (SEQ ID NO:1) with a different amino acid, typically an alanine, as described in copending application Ser. No. 10/095,659. The functional profiles for the mutants derived from DL03 wt (SEQ ID NO:1) was obtained by constructing and screening for activity in the A5T4 reporter cell line in the manner described above. The activity of each mutant at the germline ε promoter is reflected in the reporter ratio as described above. The reporter ratios were the functional values that were used to develop the functional profiles.
Comparison of the interaction and functional profiles was performed by categorizing the mutants of DL03 based on the functional and interaction assays. Based on the reporter ratio, described in panel C of FIG. 4, each mutant was categorized into one of four functional categories: (1) reduction of function (ROF); (2) loss of function (LOF); (3) increase of function (IOF) or (4) functionally neutral (N) as compared to the activity of the wild type peptide, here DL03 wt (SEQ ID NO:1). As mentioned previously, cells expressing a peptide that inhibits germline ε transcription have reporter ratios of ≧1.1. Cell expressing a loss of function (LOF) mutant have a reporter ratio of […]. […] Functionally neutral mutants have reporter ratios that fall within ±50% of that of the DL03 wt (SEQ ID NO:1). The % increase or decrease in reporter ratio is calculated after subtracting 1.0 from the individual ratios. Using these criteria, peptide DL03IL (SEQ ID NO:2) and peptide DL03LA (SEQ ID NO:4) were designated as ROF mutants, peptide DL03KP (SEQ ID NO:3) was designated as a IOF mutant, peptides DL03TS (SEQ ID NO:5), DL03GA (SEQ ID NO:6), DL03TT (SEQ ID NO:7), DL03AS (SEQ ID NO:8), and DL03MT (SEQ ID NO:9) were designated as neutral. No LOF mutant were found for the DL03 clone.

human CLIC1 (hCLIC1) = biological target: T1, human CLIC1 (hCLIC1) (Homo sapiens, UniProt O00299); experiment: β-galactosidase yeast two hybrid (YTH) interaction assay; assay type: binding
T1 construct: expressed in transfected cells; prey cDNA from the A5T4 reporter line (derived from BJAB B-cells)
Procedure: Potential binding partners for peptide DL03 wt (SEQ ID: 1) were identified in a β-galactosidase yeast two-hybrid (YTH) assay using peptide DL03 wt (SEQ ID: 1) as bait and a cDNA library constructed from the A5T4 reporter cell line as prey. Binding was assessed by β-galactosidase quantification using BetaFluor (Novagen) as a substrate. A negative interaction control (no cDNA fused downstream of the GAL4 activation domain sequence) was also run. A general outline of the YTH assay is illustrated in FIG. 5A. Following clustering, filtering to remove non-specific bait hits (e.g., GFP and BFP), singletons and clusters recognized by 10 or more cDNA baits (based upon historical YTH assays), and prioritization, 22 prey clones were identified as hits.
Potential targets identified in the YTH assay were reconfirmed as generally outlined in FIG. 6. The cDNA clones identified as hits in the YTH assay were purified and rescreened for interaction with the DL03 wt (SEQ ID NO:1) peptide in a YTH assay. The hit clones were also screened in a control assay for interaction with the BFP using a vector (pGBKT7) that contained only the BFP and not the DL03 peptide. At this stage, 12 putative target clones remained.
The interaction of DL03 wt (SEQ ID NO:1) peptide and its mutants with the clones identified as potential targets for the peptide DL03 wt (SEQ ID NO:1) was then quantified in a β-galactosidase YTH assay. The YTH assay was performed in the manner described above. A general outline of this YTH assay is illustrated in FIG. 5B. For each clone tested, an interaction profile was developed by comparing the β-galactosidase activity of each mutant to that of the wild type peptide as described above.
The interaction of these IOF and ROF mutants with different polypeptides encoded by the putative target clones were quantified using the YTH assay described above. Based on the YTH assay, for each putative target, the mutants were categorized into the following four interaction categories: (1) reduction of interaction (ROI); (2) loss of interaction (LOI); (3) increase of interaction (IOI); and (4) interactionally neutral (N), by assessing the binding affinity ratio of the mutant peptide and the wild type peptide (β-gal activity of mutant/wild type) to the putative target. For the YTH interaction assay mutants DL03IL (SEQ ID NO:2), DL03KP (SEQ ID NO:3), DL03LA (SEQ ID NO:4), as well as originally identified peptide DL03 wt (SEQ ID NO:1) were used.
Based on these functional and interaction categorizations, graphic profile representations for each potential target polypeptide were obtained using a weighted categorization process as depicted in FIG. 9. […]

germline α promoter = experiment: TAQMAN assay of endogenous germline α transcription in ST486 cells stimulated with TGF-β; assay type: cell-based; settings: TGF-β 40 ng/ml, average of 3 values, p=0.3228
Procedure: The assay was similar to that described in the immediately preceding section, except that ST486 cells (ATCC # CRL-1647) engineered to express the tetracycline-regulated transactivator were infected and the infected cells were stimulated with TGF-β (40 ng/ml; Peprotech). The primers and probe, which are specific for the transcription product driven by the ST486 endogenous α promoter, were as follows (the probe was labeled at the 5′-end with Fam and at the 3′-end with Tamra): […]

## LYAAI LLHGATTASMTKPLA (LYAAILLHGATTASMTKPLA; peptide generated from combinatorial library) [DL03TS, double-residue mutant of DL03 wt]
[1]
  functional category of mutant as compared to wild type peptide, based on reporter ratio: neutral
  Reporter Ratio: 1.49

## LYTS I LLHARTTASMTKPLA (LYTSILLHARTTASMTKPLA; peptide generated from combinatorial library) [DL03GA, double-residue mutant of DL03 wt]
[1]
  functional category of mutant as compared to wild type peptide, based on reporter ratio: neutral
  Reporter Ratio: 1.67

## LYTS I LLHGAAAASMTKPLA (LYTSILLHGAAAASMTKPLA; peptide generated from combinatorial library) [DL03TT, double-residue mutant of DL03 wt]
[1]
  functional category of mutant as compared to wild type peptide, based on reporter ratio: neutral
  Reporter Ratio: 1.43

## LYTS I LLHGATTASAAKPLA (LYTSILLHGATTASAAKPLA; Peptide generated from combinatorial library) [DL03MT, double-residue mutant of DL03 wt]
[1]
  functional category of mutant as compared to wild type peptide, based on reporter ratio: neutral
  Reporter Ratio: 1.30

## LYTS I LLHGATTASMTAALA (LYTSILLHGATTASMTAALA; peptide generated from combinatorial library) [DL03KP, double-residue mutant of DL03 wt]
[1]
  functional category of mutant as compared to wild type peptide, based on reporter ratio: IOF (An increase of function mutant (IOF) shows a >50% increase in reporter ratio)
Human CLIC1 (hCLIC1)
  binding to human CLIC1 in yeast two hybrid interaction assay: found to bind

## LYTS I LLHGATTASMTKPAR (LYTSILLHGATTASMTKPAR; peptide generated from combinatorial library) [DL03LA, double-residue mutant of DL03 wt]
Human CLIC1 (hCLIC1)
  binding to human CLIC1 in yeast two hybrid interaction assay: found to bind

## LYTS I LLHGATTASMTKPLA (LYTSILLHGATTASMTKPLA; peptide generated from a combinatorial library) [DL03wt, peptide 20-mer identified from a retroviral random library, expressed in cells as BFP-peptide fusion]
Germline α promoter
  endogenous α inhibition ratio: 0.66
Human CLIC1 (hCLIC1)
  binding to human CLIC1 in yeast two hybrid interaction assay: found to bind

## LYTS I LLHGATTRAMTKPLA (LYTSILLHGATTRAMTKPLA; Peptide generated from combinatorial library) [DL03AS, double-residue mutant of DL03 wt]
[1]
  functional category of mutant as compared to wild type peptide, based on reporter ratio: neutral
  Reporter Ratio: 1.57

## LYTSAALHGATTASMTKPLA (Peptide generated by a combinatorial library) [DL03IL, double-residue mutant of DL03 wt]
Human CLIC1 (hCLIC1)
  binding to human CLIC1 in yeast two hybrid interaction assay: found to bind
